Results reported in the supplement of paper PMC13207355.
± gives the standard deviation of the averaged measurements.

How the values were obtained:
Conditions in all cases: exposure time: 72 h
[1] = tested on: E13 (patient-derived glioblastoma stem cells of classical subtype); experiment: surviving fraction (nuclei count normalised to DMSO); higher = more cells surviving (less toxic)
[2] = tested on: E21 (patient-derived glioblastoma stem cells of mesenchymal subtype); experiment: as above
[3] = tested on: E28 (patient-derived glioblastoma stem cells of classical subtype); experiment: as above
[4] = tested on: E34 (patient-derived glioblastoma stem cells of proneural subtype); experiment: as above
[5] = tested on: E57 (patient-derived glioblastoma stem cells of mesenchymal subtype); experiment: as above
[6] = tested on: FT3469 (normal neural stem cell line); experiment: as above
[7] = tested on: E13; experiment: phenotypic distance (Euclidean, principal components) from DMSO controls (arbitrary units); higher = stronger morphological change
[8] = tested on: E21; experiment: as above
[9] = tested on: E28; experiment: as above
[10] = tested on: E34; experiment: as above
[11] = tested on: E57; experiment: as above
[12] = tested on: FT3469; experiment: as above
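Wherever phenotypic distance (Euclidean, principal components) from DMSO controls is given: cell Painting imaging in 384-well plates, CellProfiler features reduced to at least 20 principal components, Euclidean distance versus same-plate DMSO vehicle wells (0.1% v/v), median over six images per well.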
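Wherever surviving fraction (nuclei count normalised to DMSO) is given: nuclei counted by high-content imaging of Hoechst-stained cells in laminin-coated 384-well plates, relative to 0.1% DMSO vehicle wells, with staurosporine as cell-death control.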

CN1C(=O)[C@@]23C[C@]4([C@]56C[C@@]78SS[C@@](CO)(C(=O)N7[C@H]5Nc5ccccc56)N(C)C8=O)c5ccccc5N[C@@H]4N2C(=O)[C@]1(CO)SS3 [Chaetocin]
surviving fraction ([1]; 4.1 nM): 0.552 ± 0.34
surviving fraction ([1]; 12.3 nM): 0.4 ± 0.24
surviving fraction ([1]; 37 nM): 0.0566 ± 0.0074
surviving fraction ([1]; 111.1 nM): 0.0323 ± 0.0054
surviving fraction ([1]; 333.3 nM): 0.00998 ± 0.00067
surviving fraction ([1]; 1000 nM): 0.0119 ± 0.0034
surviving fraction ([1]; 3000 nM): 0.0124 ± 0.004
surviving fraction ([2]; 4.1 nM): 0.253 ± 0.28
surviving fraction ([2]; 12.3 nM): 0.0911 ± 0.095
surviving fraction ([2]; 37 nM): 0.0242 ± 0.0099
surviving fraction ([2]; 111.1 nM): 0.00808 ± 0.00076
surviving fraction ([2]; 333.3 nM): 0.00862 ± 0.0076
surviving fraction ([2]; 1000 nM): 0.0113 ± 0.0069
surviving fraction ([2]; 3000 nM): 0.00808 ± 0.0099
surviving fraction ([3]; 4.1 nM): 0.328 ± 0.13
surviving fraction ([3]; 12.3 nM): 0.281 ± 0.12
surviving fraction ([3]; 37 nM): 0.1561 ± 0.00067
surviving fraction ([3]; 111.1 nM): 0.111 ± 0.0033
surviving fraction ([3]; 333.3 nM): 0.00802 ± 0.0033
surviving fraction ([3]; 1000 nM): 0.00283 ± 0.0013
surviving fraction ([3]; 3000 nM): 0.00707 ± 0.0087
surviving fraction ([4]; 4.1 nM): 0.41 ± 0.038
surviving fraction ([4]; 12.3 nM): 0.345 ± 0.19
surviving fraction ([4]; 37 nM): 0.149 ± 0.097
surviving fraction ([4]; 111.1 nM): 0.0449 ± 0.013
surviving fraction ([4]; 333.3 nM): 0.0206 ± 0.021
surviving fraction ([4]; 1000 nM): 0.0187 ± 0.016
surviving fraction ([4]; 3000 nM): 0.0159 ± 0.017
surviving fraction ([5]; 4.1 nM): 0.765 ± 0.45
surviving fraction ([5]; 12.3 nM): 0.402 ± 0.36
surviving fraction ([5]; 37 nM): 0.056 ± 0.0051
surviving fraction ([5]; 111.1 nM): 0.0464 ± 0.0016
surviving fraction ([5]; 333.3 nM): 0.00359 ± 0.0027
surviving fraction ([5]; 1000 nM): 0.00745 ± 0.0059
surviving fraction ([5]; 3000 nM): 0.00248 ± 0.0027
surviving fraction ([6]; 4.1 nM): 0.518 ± 0.19
surviving fraction ([6]; 12.3 nM): 0.481 ± 0.085
surviving fraction ([6]; 37 nM): 0.364 ± 0.081
surviving fraction ([6]; 111.1 nM): 0.194 ± 0.011
surviving fraction ([6]; 333.3 nM): 0.00806 ± 0.0013
surviving fraction ([6]; 1000 nM): 0.0296 ± 0.042
surviving fraction ([6]; 3000 nM): 0.0116 ± 0.011
phenotypic distance ([7]; 4.1 nM): 2.76 ± 0.82
phenotypic distance ([7]; 12.3 nM): 3.18 ± 1.1
phenotypic distance ([7]; 37 nM): 5.87 ± 0.42
phenotypic distance ([7]; 111.1 nM): 7.1 ± 0.28
phenotypic distance ([7]; 333.3 nM): 10.5 ± 0.73
phenotypic distance ([7]; 1000 nM): 9.83 ± 0.74
phenotypic distance ([7]; 3000 nM): 10.7 ± 0.7
phenotypic distance ([8]; 4.1 nM): 4.37 ± 1.6
phenotypic distance ([8]; 12.3 nM): 4.95 ± 1.1
phenotypic distance ([8]; 37 nM): 7.07 ± 0.62
phenotypic distance ([8]; 111.1 nM): 10.1 ± 0.7
phenotypic distance ([8]; 333.3 nM): 12.7 ± 5.4
phenotypic distance ([8]; 1000 nM): 11.4 ± 0.9
phenotypic distance ([8]; 3000 nM): 14.2 ± 3.1
phenotypic distance ([9]; 4.1 nM): 1.98 ± 0.13
phenotypic distance ([9]; 12.3 nM): 2.51 ± 0.5
phenotypic distance ([9]; 37 nM): 3.933 ± 0.025
phenotypic distance ([9]; 111.1 nM): 5.55 ± 0.096
phenotypic distance ([9]; 333.3 nM): 10.4 ± 5.5
phenotypic distance ([9]; 1000 nM): 9.23 ± 0.18
phenotypic distance ([9]; 3000 nM): 9.7 ± 2.8
phenotypic distance ([10]; 4.1 nM): 2.24 ± 0.087
phenotypic distance ([10]; 12.3 nM): 3.35 ± 1.6
phenotypic distance ([10]; 37 nM): 6.13 ± 1.1
phenotypic distance ([10]; 111.1 nM): 7.1327 ± 0.0058
phenotypic distance ([10]; 333.3 nM): 10.8 ± 2.2
phenotypic distance ([10]; 1000 nM): 13 ± 0.63
phenotypic distance ([10]; 3000 nM): 11.9 ± 2.9
phenotypic distance ([11]; 4.1 nM): 2.84 ± 0.23
phenotypic distance ([11]; 12.3 nM): 3.23 ± 0.55
phenotypic distance ([11]; 37 nM): 4.87 ± 0.61
phenotypic distance ([11]; 111.1 nM): 5.13 ± 0.016
phenotypic distance ([11]; 333.3 nM): 8.15 ± 0.19
phenotypic distance ([11]; 1000 nM): 9.97 ± 1.4
phenotypic distance ([11]; 3000 nM): 10.7 ± 2.8
phenotypic distance ([12]; 4.1 nM): 3.69 ± 0.32
phenotypic distance ([12]; 12.3 nM): 3.49 ± 0.41
phenotypic distance ([12]; 37 nM): 4.19 ± 0.069
phenotypic distance ([12]; 111.1 nM): 5.8 ± 0.58
phenotypic distance ([12]; 333.3 nM): 10.7 ± 1.2
phenotypic distance ([12]; 1000 nM): 10.1 ± 2.5
phenotypic distance ([12]; 3000 nM): 9.44 ± 2.6

CCn1c(-c2nonc2N)nc2cnc(Oc3cccc(NC(=O)c4ccc(OCCN5CCOCC5)cc4)c3)cc21
surviving fraction ([1]; 4.1 nM): 0.992 ± 0.048
surviving fraction ([1]; 12.3 nM): 0.995 ± 0.035
surviving fraction ([1]; 37 nM): 0.9924 ± 0.0054
surviving fraction ([1]; 111.1 nM): 1.0033 ± 0.00067
surviving fraction ([1]; 333.3 nM): 1.03 ± 0.054
surviving fraction ([1]; 1000 nM): 0.729 ± 0.077
surviving fraction ([1]; 3000 nM): 0.633 ± 0.011
surviving fraction ([2]; 4.1 nM): 0.933 ± 0.058
surviving fraction ([2]; 12.3 nM): 0.948
surviving fraction ([2]; 37 nM): 0.974 ± 0.049
surviving fraction ([2]; 111.1 nM): 0.925 ± 0.12
surviving fraction ([2]; 333.3 nM): 0.898 ± 0.05
surviving fraction ([2]; 1000 nM): 0.613 ± 0.032
surviving fraction ([2]; 3000 nM): 0.448 ± 0.037
surviving fraction ([3]; 4.1 nM): 0.9684 ± 0.0013
surviving fraction ([3]; 12.3 nM): 0.977 ± 0.023
surviving fraction ([3]; 37 nM): 1.02 ± 0.11
surviving fraction ([3]; 111.1 nM): 0.996 ± 0.069
surviving fraction ([3]; 333.3 nM): 0.909 ± 0.034
surviving fraction ([3]; 1000 nM): 0.619 ± 0.0067
surviving fraction ([3]; 3000 nM): 0.5398 ± 0.0033
surviving fraction ([4]; 4.1 nM): 1.12 ± 0.078
surviving fraction ([4]; 12.3 nM): 1.14 ± 0.2
surviving fraction ([4]; 37 nM): 1.176 ± 0.0026
surviving fraction ([4]; 111.1 nM): 0.989 ± 0.056
surviving fraction ([4]; 333.3 nM): 1.02 ± 0.087
surviving fraction ([4]; 1000 nM): 0.887 ± 0.11
surviving fraction ([4]; 3000 nM): 0.746 ± 0.021
surviving fraction ([5]; 4.1 nM): 1.06 ± 0.028
surviving fraction ([5]; 12.3 nM): 1.01 ± 0.054
surviving fraction ([5]; 37 nM): 1.01 ± 0.011
surviving fraction ([5]; 111.1 nM): 0.996 ± 0.043
surviving fraction ([5]; 333.3 nM): 0.86 ± 0.025
surviving fraction ([5]; 1000 nM): 0.645 ± 0.083
surviving fraction ([5]; 3000 nM): 0.486 ± 0.059
surviving fraction ([6]; 4.1 nM): 1.18 ± 0.047
surviving fraction ([6]; 12.3 nM): 1.18 ± 0.11
surviving fraction ([6]; 37 nM): 1.12 ± 0.095
surviving fraction ([6]; 111.1 nM): 1.055 ± 0.0038
surviving fraction ([6]; 333.3 nM): 1.06 ± 0.14
surviving fraction ([6]; 1000 nM): 0.911 ± 0.014
surviving fraction ([6]; 3000 nM): 0.766 ± 0.07
phenotypic distance ([7]; 4.1 nM): 2.07 ± 0.12
phenotypic distance ([7]; 12.3 nM): 2.22 ± 0.034
phenotypic distance ([7]; 37 nM): 2.86 ± 0.92
phenotypic distance ([7]; 111.1 nM): 2.12 ± 0.14
phenotypic distance ([7]; 333.3 nM): 2.126 ± 0.021
phenotypic distance ([7]; 1000 nM): 2.51 ± 0.32
phenotypic distance ([7]; 3000 nM): 3.08 ± 0.28
phenotypic distance ([8]; 4.1 nM): 1.88 ± 0.33
phenotypic distance ([8]; 12.3 nM): 2.27 ± 0.097
phenotypic distance ([8]; 37 nM): 2.12 ± 0.036
phenotypic distance ([8]; 111.1 nM): 2.01 ± 0.098
phenotypic distance ([8]; 333.3 nM): 1.94 ± 0.17
phenotypic distance ([8]; 1000 nM): 2.16 ± 0.28
phenotypic distance ([8]; 3000 nM): 2.66 ± 0.25
phenotypic distance ([9]; 4.1 nM): 2.14 ± 0.14
phenotypic distance ([9]; 12.3 nM): 2.12 ± 0.071
phenotypic distance ([9]; 37 nM): 2.16 ± 0.14
phenotypic distance ([9]; 111.1 nM): 2.28 ± 0.11
phenotypic distance ([9]; 333.3 nM): 2.41 ± 0.027
phenotypic distance ([9]; 1000 nM): 3.356 ± 0.0074
phenotypic distance ([9]; 3000 nM): 3.1 ± 0.3
phenotypic distance ([10]; 4.1 nM): 1.73 ± 0.42
phenotypic distance ([10]; 12.3 nM): 1.69 ± 0.44
phenotypic distance ([10]; 37 nM): 2.04 ± 0.11
phenotypic distance ([10]; 111.1 nM): 1.79 ± 0.17
phenotypic distance ([10]; 333.3 nM): 1.73 ± 0.2
phenotypic distance ([10]; 1000 nM): 1.67 ± 0.12
phenotypic distance ([10]; 3000 nM): 2.39 ± 0.25
phenotypic distance ([11]; 4.1 nM): 0.962 ± 0.15
phenotypic distance ([11]; 12.3 nM): 1.68 ± 1.1
phenotypic distance ([11]; 37 nM): 0.775 ± 0.097
phenotypic distance ([11]; 111.1 nM): 0.817 ± 0.15
phenotypic distance ([11]; 333.3 nM): 1.73 ± 0.51
phenotypic distance ([11]; 1000 nM): 2.26 ± 0.43
phenotypic distance ([11]; 3000 nM): 3.68 ± 0.26
phenotypic distance ([12]; 4.1 nM): 2.61 ± 1.5
phenotypic distance ([12]; 12.3 nM): 1.73 ± 0.41
phenotypic distance ([12]; 37 nM): 1.75 ± 0.065
phenotypic distance ([12]; 111.1 nM): 1.587 ± 0.0035
phenotypic distance ([12]; 333.3 nM): 1.48 ± 0.056
phenotypic distance ([12]; 1000 nM): 1.9 ± 0.018
phenotypic distance ([12]; 3000 nM): 3.17 ± 0.13
